{
  "source": "patent US11058695B2",
  "about": "“Inhibitor of carbapenem-hydrolyzing class D beta-lactamases” (MYONGJI UNIVERSITY INDUSTRY AND ACADEMIA COOPERATION …, priority 2019, dated 2021)",
  "key": {"[1]": {"target": "OXA-23 (Acinetobacter baumannii, UniProt Q9L4P2)", "sequence (Q9L4P2 31-273 limits assumed)": "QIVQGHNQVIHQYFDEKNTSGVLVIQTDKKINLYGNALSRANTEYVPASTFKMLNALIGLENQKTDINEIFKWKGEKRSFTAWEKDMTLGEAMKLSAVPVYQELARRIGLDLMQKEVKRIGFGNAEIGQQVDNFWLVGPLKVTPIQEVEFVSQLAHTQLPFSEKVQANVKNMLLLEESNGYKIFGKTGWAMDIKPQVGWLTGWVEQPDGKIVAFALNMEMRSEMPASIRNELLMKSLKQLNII", "experiment": "CHDL enzyme inhibition assay with nitrocefin", "assay_type": "biochemical", "conditions": "OXA-23 418 pM, 100 μM nitrocefin, 5 minute pre-incubation; read-out: IC50 against OXA-23", "protocol": "(§1) The screened 7 compounds were dissolved in 100% DMSO at 10 mM. More diluted stocks were prepared as necessary. OXA-48 activity was determined by monitoring the change of absorbance at 482 nm using the characteristic molecular extinction coefficient (Δε482=15,900 M^−1 cm^−1) of nitrocefin (Oxoid, Hampshire, UK) by a Shimazu UV-1650PC spectrophotometer. Up to 5% DMSO, no influence on the enzyme activity of OXA-48 was observed. The assays were conducted in 10 mM MES (pH 6.8) containing OXA-48 (103 pM), 50 mM NaHCO3, and 20 μg/mL bovine serum albumin. After 5 min of pre-incubation of the purified OXA-48 and each inhibitor at 30° C., the enzymatic reaction was started by adding nitrocefin (100 μM). Residual velocities were determined after 5 minutes. The first 120 s of each reaction was used to measure initial rates. Data were evaluated using Microsoft Excel. Concentration-dependent inhibition of OXA-48 was measured using different concentrations of seven compounds resulting from two-fold dilution series. Reaction progress at every concentration of seven compounds was measured in triplicates. IC50 values were calculated using 4-parameter log fits using XL Fit curve fitting software (www.idbs.com) for Excel using the following equation:\n(§2) [formula] where y is the remaining enzyme activity (in %) and x is the corresponding concentration. The fitted IC50 parameter is defined as the concentration giving a response half way between the fitted top (B) and bottom (A) of the curve.\n(§3) To investigate the inhibitory effects of the novel inhibitor (PLPBA) against eight CHDLs belonging to six clinically-important CHDL subgroups(member of OXA-23 subgroup: OXA-23; member of OXA-24/40 subgroup: OXA-24/40; member of OXA-48 subgroup: OXA-48; members of OXA-51 subgroup: OXA-51 and OXA-109; member of OXA-58 subgroup: OXA-97; member of OXA-143 subgroup: OXA-143) and five CHDLs belonging to four emerging CHDL subgroups (member of OXA-211 subgroup: OXA-211; members of OXA-229 subgroup: OXA-229 and OXA-418; member of OXA-210 subgroup: OXA-210; and member of OXA-240 subgroup: OXA-240), the IC50 values for them were determined (Table 3). PLPBA was dissolved in 100% DMSO at 10 mM. More diluted stocks were prepared as necessary. Activities of CHDLs were determined by monitoring the change of absorbance at 482 nm. Up to 5% DMSO, no influence on the enzyme activities of CHDLs was observed. Each enzyme (OXA-23, 418 pM; OXA-24/40, 134 pM; OXA-48, 103 pM; OXA-51, 184 nM; OXA-97, 178 pM; OXA-109, 168 nM; OXA-143, 96 pM; OXA-210, 179 pM; OXA-211, 701 pM; OXA-229, 142 pM; OXA-240, 383 pM; OXA-418, 158 pM) was mixed with 100 μM nitrocefin after a 5 minute pre-incubation with PLPBA. The first 120 s of each reaction was used to measure initial rates. Data were evaluated using Microsoft Excel. Reaction progress at every concentration of PLPBA was measured in triplicates."}, "[2]": {"target": "OXA-229 (Acinetobacter bereziniae, UniProt I6S7G0)", "sequence (I6S7G0 entry or part of it)": "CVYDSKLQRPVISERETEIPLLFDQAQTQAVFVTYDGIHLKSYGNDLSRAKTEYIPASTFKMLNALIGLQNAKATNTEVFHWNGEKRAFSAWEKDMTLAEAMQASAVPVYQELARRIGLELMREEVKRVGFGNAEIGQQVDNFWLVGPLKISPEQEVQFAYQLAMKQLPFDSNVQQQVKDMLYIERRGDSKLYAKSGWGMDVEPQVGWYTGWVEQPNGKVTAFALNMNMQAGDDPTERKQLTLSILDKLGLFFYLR", "experiment": "CHDL enzyme inhibition assay with nitrocefin", "assay_type": "biochemical", "conditions": "OXA-229 142 pM, 100 μM nitrocefin, 5 minute pre-incubation; read-out: IC50 against OXA-229", "protocol": "as §1, §2, §3"}, "[3]": {"target": "OXA-97 (Acinetobacter baumannii, UniProt A5Y470)", "sequence (A5Y470 entry or part of it)": "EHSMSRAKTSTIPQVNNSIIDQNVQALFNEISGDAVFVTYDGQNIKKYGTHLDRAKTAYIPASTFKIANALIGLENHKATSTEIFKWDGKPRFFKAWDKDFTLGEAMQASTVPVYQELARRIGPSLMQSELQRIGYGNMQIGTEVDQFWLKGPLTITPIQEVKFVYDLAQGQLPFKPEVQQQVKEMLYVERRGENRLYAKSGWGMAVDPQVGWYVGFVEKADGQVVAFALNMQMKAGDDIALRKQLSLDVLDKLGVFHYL", "experiment": "CHDL enzyme inhibition assay with nitrocefin", "assay_type": "biochemical", "conditions": "OXA-97 178 pM, 100 μM nitrocefin, 5 minute pre-incubation; read-out: IC50 against OXA-97", "protocol": "as §1, §2, §3"}, "[4]": {"target": "OXA-24/40 (Acinetobacter baumannii, UniProt Q8RLA6)", "sequence (Q8RLA6 entry or part of it)": "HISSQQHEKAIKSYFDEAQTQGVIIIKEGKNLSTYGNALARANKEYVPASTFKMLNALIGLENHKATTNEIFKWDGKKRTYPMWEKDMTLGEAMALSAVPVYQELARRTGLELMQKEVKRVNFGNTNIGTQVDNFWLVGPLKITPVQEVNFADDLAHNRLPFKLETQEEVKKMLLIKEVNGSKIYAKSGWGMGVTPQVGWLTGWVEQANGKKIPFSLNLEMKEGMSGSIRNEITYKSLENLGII", "experiment": "CHDL enzyme inhibition assay with nitrocefin", "assay_type": "biochemical", "protocol": "as §1, §2, §3"}, "[5]": {"target": "OXA-143 (Acinetobacter baumannii, UniProt D0UHC8)", "sequence (D0UHC8 entry or part of it)": "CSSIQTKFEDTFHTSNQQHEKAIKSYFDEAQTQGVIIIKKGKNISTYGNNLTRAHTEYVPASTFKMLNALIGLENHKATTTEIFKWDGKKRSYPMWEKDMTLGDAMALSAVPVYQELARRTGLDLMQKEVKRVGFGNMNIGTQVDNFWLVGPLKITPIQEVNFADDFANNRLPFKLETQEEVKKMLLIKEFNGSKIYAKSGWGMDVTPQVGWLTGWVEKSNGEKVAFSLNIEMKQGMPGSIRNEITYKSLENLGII", "experiment": "CHDL enzyme inhibition assay with nitrocefin", "assay_type": "biochemical", "conditions": "OXA-143 96 pM, 100 μM nitrocefin, 5 minute pre-incubation; read-out: IC50 against OXA-143", "protocol": "as §1, §2, §3"}, "[6]": {"target": "OXA-211 (Acinetobacter johnsonii, UniProt G9JKV7)", "sequence (G9JKV7 entry or part of it)": "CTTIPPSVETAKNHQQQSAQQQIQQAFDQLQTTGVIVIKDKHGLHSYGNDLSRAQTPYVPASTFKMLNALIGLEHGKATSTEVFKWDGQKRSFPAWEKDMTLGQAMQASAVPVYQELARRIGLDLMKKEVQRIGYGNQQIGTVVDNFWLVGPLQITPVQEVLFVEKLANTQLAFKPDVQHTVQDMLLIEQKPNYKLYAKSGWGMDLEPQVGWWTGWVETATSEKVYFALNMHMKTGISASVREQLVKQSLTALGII", "experiment": "CHDL enzyme inhibition assay with nitrocefin", "assay_type": "biochemical", "conditions": "OXA-211 701 pM, 100 μM nitrocefin, 5 minute pre-incubation; read-out: IC50 against OXA-211", "protocol": "as §1, §2, §3"}, "[7]": {"target": "OXA-109 (Acinetobacter baumannii, UniProt A8JZR7)", "sequence (A8JZR7 entry or part of it)": "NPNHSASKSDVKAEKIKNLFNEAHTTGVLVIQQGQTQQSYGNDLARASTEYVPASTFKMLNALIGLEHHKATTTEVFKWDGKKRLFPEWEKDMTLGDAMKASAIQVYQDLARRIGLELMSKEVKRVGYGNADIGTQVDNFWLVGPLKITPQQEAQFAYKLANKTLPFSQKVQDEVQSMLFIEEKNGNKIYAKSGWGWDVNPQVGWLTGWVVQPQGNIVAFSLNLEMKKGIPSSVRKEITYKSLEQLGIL", "experiment": "CHDL enzyme inhibition assay with nitrocefin", "assay_type": "biochemical", "conditions": "OXA-109 168 nM, 100 μM nitrocefin, 5 minute pre-incubation; read-out: IC50 against OXA-109", "protocol": "as §1, §2, §3"}, "[8]": {"target": "OXA-210 (Pseudomonas aeruginosa, UniProt F6ME16)", "sequence (F6ME16 entry or part of it)": "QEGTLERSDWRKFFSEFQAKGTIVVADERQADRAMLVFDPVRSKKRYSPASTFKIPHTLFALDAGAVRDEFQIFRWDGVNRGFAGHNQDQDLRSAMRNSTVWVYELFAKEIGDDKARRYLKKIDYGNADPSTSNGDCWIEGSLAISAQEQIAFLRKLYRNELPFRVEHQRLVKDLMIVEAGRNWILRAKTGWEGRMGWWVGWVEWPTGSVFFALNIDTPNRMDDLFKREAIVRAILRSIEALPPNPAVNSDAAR", "experiment": "CHDL enzyme inhibition assay with nitrocefin", "assay_type": "biochemical", "protocol": "as §1, §2, §3"}, "[9]": {"target": "OXA-51 (Acinetobacter baumannii, UniProt Q5QT35)", "sequence (Q5QT35 entry or part of it)": "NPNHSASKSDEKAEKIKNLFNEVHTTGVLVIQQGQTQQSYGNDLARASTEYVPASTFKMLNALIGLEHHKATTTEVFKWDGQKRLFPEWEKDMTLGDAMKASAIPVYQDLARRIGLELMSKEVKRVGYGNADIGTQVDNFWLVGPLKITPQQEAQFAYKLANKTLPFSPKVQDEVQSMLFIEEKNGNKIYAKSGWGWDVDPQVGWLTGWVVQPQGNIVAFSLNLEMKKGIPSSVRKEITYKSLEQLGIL", "experiment": "CHDL enzyme inhibition assay with nitrocefin", "assay_type": "biochemical", "conditions": "OXA-51 184 nM, 100 μM nitrocefin, 5 minute pre-incubation; read-out: IC50 against OXA-51", "protocol": "as §1, §2, §3"}, "[10]": {"target": "OXA-48 (Klebsiella pneumoniae, UniProt Q6XEC0)", "sequence (Q6XEC0 24-265 limits assumed, looked up)": "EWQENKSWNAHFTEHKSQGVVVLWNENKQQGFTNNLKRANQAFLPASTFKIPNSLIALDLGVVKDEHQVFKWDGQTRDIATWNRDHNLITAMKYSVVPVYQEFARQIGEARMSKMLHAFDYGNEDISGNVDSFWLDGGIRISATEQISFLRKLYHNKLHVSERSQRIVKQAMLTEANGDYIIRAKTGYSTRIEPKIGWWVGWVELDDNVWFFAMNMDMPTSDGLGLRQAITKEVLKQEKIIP", "experiment": "OXA-48 enzyme inhibition assay with nitrocefin", "assay_type": "biochemical", "conditions": "OXA-48 103 pM", "protocol": "as §1\n(§4) [formula] where y is the remaining enzyme activity (in %) and x is the corresponding concentration. […]"}, "[11]": {"target": "OXA-240 (Pseudomonas aeruginosa, UniProt I6VVS5)", "sequence (I6VVS5 21-266 limits assumed)": "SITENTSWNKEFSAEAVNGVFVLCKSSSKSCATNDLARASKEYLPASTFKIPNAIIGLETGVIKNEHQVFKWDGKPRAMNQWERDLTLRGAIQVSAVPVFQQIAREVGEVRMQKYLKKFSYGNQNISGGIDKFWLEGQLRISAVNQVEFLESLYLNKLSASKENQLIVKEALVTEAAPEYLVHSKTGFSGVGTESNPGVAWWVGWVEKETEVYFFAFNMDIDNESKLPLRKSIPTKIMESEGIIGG", "experiment": "CHDL enzyme inhibition assay with nitrocefin", "assay_type": "biochemical, P. aeruginosa", "conditions": "OXA-240 383 pM, 100 μM nitrocefin, 5 minute pre-incubation; read-out: IC50 against OXA-240", "protocol": "as §1, §4"}},
  "note": "Where two headings read alike, the source gives them in different places.",
  "data": [
    {"smiles": "OB(O)c1cccc(OCCc2ccccc2)c1", "note": "[Compound 1, [3-(2-Phenylethoxy)phenyl]boronic Acid]", "values": [
      {"measurement": "IC50", "setting": "[1]", "value": "275.54 ± 0.02", "unit": "µM"},
      {"measurement": "IC50", "setting": "[2]", "value": "171.93 ± 0.01", "unit": "µM"},
      {"measurement": "IC50", "setting": "[3]", "value": "189.02 ± 0.01", "unit": "µM"},
      {"measurement": "IC50", "setting": "[4]", "value": "384.73 ± 0.02", "unit": "µM"},
      {"measurement": "IC50", "setting": "[5]", "value": "91.79 ± 0.01", "unit": "µM"},
      {"measurement": "IC50", "setting": "[6]", "value": "238.51 ± 0.01", "unit": "µM"},
      {"measurement": "IC50", "setting": "[7]", "value": "864.59 ± 0.02", "unit": "µM"},
      {"measurement": "IC50", "setting": "[8]", "value": "218.79 ± 0.02", "unit": "µM"},
      {"measurement": "IC50", "setting": "[9]", "value": "594.73 ± 0.01", "unit": "µM"},
      {"measurement": "IC50", "setting": "[10]; nitrocefin 100 μM, 5 min pre-incubation at 30° C., 10 mM MES pH 6.8, read-out: IC50 values on OXA-48 of the screened compounds", "value": 155, "unit": "µM"},
      {"measurement": "IC50", "setting": "[10]; Table 3, 100 μM nitrocefin, 5 minute pre-incubation, read-out: IC50 against OXA-48", "value": "154.84 ± 0.02", "unit": "µM"},
      {"measurement": "IC50", "setting": "[11]", "value": "218.59 ± 0.03", "unit": "µM"}
    ]}
  ]
}
